Patent US20150031892A1, “SPHINGOLIPID METABOLITE MIMETICS” (Zhejiang University, priority 2012, published 2015)
Read-outs that look alike come from different tables or passages of the source.

Columns and labels:
Type in all cases: cell-based
SW620 = test: MTT cytotoxicity assay, SW620 (colon cancer); conditions: Homo sapiens, SW-620
SW480 = test: MTT cytotoxicity assay, SW480 (colon cancer); conditions: Homo sapiens
HepG2 = test: MTT cytotoxicity assay, HepG2 (liver cancer); conditions: Homo sapiens
In short: (§1)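 Cells were seeded at 7000 per well for 24 h, then given fresh medium with the mimetics at final concentrations of 0 to 200 μM. Viability was measured by adding 1 mg/ml MTT for 4 h at 37° C, dissolving the formazan in DMSO and reading absorbance at 570 nm.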

A431 = test: MTT cytotoxicity assay, A431 (squamous carcinoma); conditions: Homo sapiens, A-431
In short: as §1

SiHa = test: MTT cytotoxicity assay, SiHa (ovarian cancer as headed); conditions: Homo sapiens, Cervical Cancer SiHa
[1] = system: multiple types of cancer cells; test: MTT cytotoxicity, statements over several cancer cell lines; conditions: for direct anti-cancer cell activity: summary statement
Experimental: Cell survival after exposure to the sphingolipid metabolite mimetics was examined by MTT cytotoxicity assay. HepG2, A431, HeLa, MCF-7 and SA cells (7000 cells/well) were seeded in each well of a 96-well plate for 24 h. New medium was added to give final concentrations of 0 to 200 μM of the sphingolipid metabolite mimetics. Then, 50 μl of 1 mg/ml 3-(4,5-dimethylthiazol-2-yl)-2,5-diphenyltetrazolium bromide (MTT, Sigma-Aldrich Chemical) was added to each well for 4 h incubation at 37° C. The purple formazan formed was then solubilized by DMSO and absorbance at 570 nm was read by a microplate reader (Molecular Devices, Sunnyvale, Calif.).

MES-SA cells = test: Apoptosis assay, Hoechst 33342 fluorescence staining; conditions: doses of their IC50 for 8 h
Experimental: The cells were then washed with PBS and stained with Hoechst 33342 (from sigma chemical) for 20 min in the dark. Morphologic changes were analyzed under a fluorescence microscope. The experiment was repeated three times.

SA = test: MTT cytotoxicity assay, SA (pancreatic cancer as headed)
In short: as §1

MCF-7 = test: MTT cytotoxicity assay, MCF-7 (breast cancer); conditions: Homo sapiens, MCF7; Breast Cancer MCF-7, MTT
In short: as §1

[2] = system: cancer cells (TRAIL resistance); test: Sensitization of cancer cells to TRAIL-induced apoptosis, general statements; conditions: summary statement
Experimental: (§2) Cell survival after exposure to the anti-tumor agents was examined by MTT cytotoxicity assay. Cells were seeded in each well of a 96-well plate for 24 h. After incubation with various concentrations of compounds, TRAIL, or both for 48 h, the medium was discarded. Then, 50 μl of 1 mg/ml 3-(4,5-dimethylthiazol-2-yl)-2,5-diphenyltetrazolium bromide (MTT, Sigma-Aldrich Chemical) was added to each well for 4 h incubation at 37° C. The purple formazan formed was then solubilized by DMSO and absorbance at 570 nm was read by a microplate reader (Molecular Devices, Sunnyvale, Calif.).

MCF-7 cells = test: Drug sensitivity MTT assay with TRAIL, MCF-7; design: scale not given here
Experimental: as §2

HELA cells = test: Drug sensitivity MTT assay with TRAIL, HELA; design: scale not given here
Experimental: as §2

SW620 cells = test: Drug sensitivity MTT assay with TRAIL, SW620; design: scale not given here
Experimental: as §2

[3] = all five cell lines tested, read-out: IC50 values
[4] = drug alone (19-100 μM; TRAIL 100 ng/ml), 48 h
[5] = enhancement due to co-administration with TRAIL
[6] = mimetic at the dose of its row combined with TRAIL 100 ng/ml, 48 h

SMILES	IC50 (SW620)	IC50 (SW480)	IC50 (HepG2)	IC50 (A431)	IC50 (SiHa)	IC50 [1, 3]	direct anti-cancer cell activity [1]	apoptotic cell death, fluorescent micrographs (FIG. 30) (MES-SA cells)	IC50 (SA)	IC50 (MCF-7)	also measured
CCCCCCCCCCCCCCNC(=O)[C@@H](NC(=O)Cc1c[nH]c2ccccc12)[C@@H](C)O [NZJU28, N-((2S,3R)-3-hydroxy-1-oxo-1-(tetradecylamino)butan-2-yl)-indole-3-acetic acid amide]	22 ± 0.71 µM	20 µM	21.1 ± 1.92 µM	15.5 ± 2.95 µM	4.8 ± 0.29 µM	< 30 µM	direct anti-cancer cell activity	apoptotic cell death	11.5 ± 0.97 µM	6.81 ± 1.73 µM	–
CCCCCCCCCCCCCCNC(=O)[C@@H](NC(=O)c1cc2ccccc2n1C)[C@@H](C)O [NZJU51, N-((2S,3R)-3-hydroxy-1-oxo-1-(tetradecylamino)butan-2-yl)-(N-methyl)indole-2-carboxamide]	–	34.2 ± 1.36 µM	34.5 ± 2.34 µM	13.7 ± 1.73 µM	26.5 ± 2.33 µM	–	direct anti-cancer cell activity	apoptotic cell death	25.7 ± 0.42 µM	–	–
CCCCCCCCCCCCCCNC(=O)[C@@H](NC(=O)c1cc2ccccc2[nH]1)[C@@H](C)O [NZJU48, N-((2S,3R)-3-hydroxy-1-oxo-1-(tetradecylamino)butan-2-yl)-indole-2-carboxamide]	–	11.8 ± 1.46 µM	10.5 ± 0.35 µM	12.2 ± 1.9 µM	14.2 ± 1.8 µM	–	direct anti-cancer cell activity	apoptotic cell death	12.1 ± 2.77 µM	–	IC50 ([1]; all of the cell lines tested, read-out: IC50 values): < 20 µM; IC50 ([1]; multiple types of cancer cells, read-out: IC50): < 20 µM
CCCCCCCCCCCCNC(=O)[C@@H](NC(=O)Cc1c[nH]c2ccccc12)[C@@H](C)O [NZJU27, N-((2S,3R)-3-hydroxy-1-oxo-1-(dodecylamino)butan-2-yl)-indole-3-acetic acid amide]	22 ± 2.86 µM	20 µM	22.6 ± 2.89 µM	23.4 ± 3.48 µM	13.6 ± 1.02 µM	< 30 µM	direct anti-cancer cell activity	apoptotic cell death	20 ± 0.74 µM	15.5 ± 2.3 µM	–
CCCCCCCCCCCCCCNC(=O)[C@@H](NC(=O)c1cc2ccccc2o1)[C@@H](C)O [NZJU37, N-((2S,3R)-3-hydroxy-1-oxo-1-(tetradecylamino)butan-2-yl)-benzofuran-2-carboxamide]	26.7 ± 2.48 µM	22.8 µM	23.4 ± 1.19 µM	20.09 ± 0.16 µM	14.2 ± 1.84 µM	< 30 µM	direct anti-cancer cell activity	apoptotic cell death	9.61 ± 0.56 µM	23.4 ± 1.19 µM	–
CCCCCCCCCCCCNC(=O)[C@@H](NC(=O)c1ccco1)[C@@H](C)O [NZJU13, N-((2S,3R)-3-hydroxy-1-oxo-1-(dodecylamino)butan-2-yl)-Furan-2-carboxamide]	87.5 ± 7.58 µM	125 ± 16.1 µM	147 ± 22.3 µM	92.4 ± 2.64 µM	64.3 ± 1.68 µM	–	direct anti-cancer cell activity	–	93.5 ± 3.13 µM	67.5 ± 4.88 µM	TRAIL sensitization activity [2]: TRAIL sensitization activity; NZJU alone mean value (sensitivity, growth inhibition) (MCF-7 cells; [4]): 0.148; Enhanced mean value (MCF-7 cells; [5]): 0.321; combine mean value (sensitivity, growth inhibition) (MCF-7 cells; [6]): 0.582; NZJU alone mean value (sensitivity, growth inhibition) (HELA cells; [4]): 0.146; Enhanced mean value (HELA cells; [5]): 0.254; combine mean value (sensitivity, growth inhibition) (HELA cells; [6]): 0.435; NZJU alone mean value (sensitivity, growth inhibition) (SW620 cells; [4]): 0.126; Enhanced mean value (SW620 cells; [5]): 0.321; combine mean value (sensitivity, growth inhibition) (SW620 cells; [6]): 0.520
CCCCCCCCCCCCNC(=O)[C@@H](NC(=O)c1cc2ccccc2o1)[C@@H](C)O [NZJU36, N-((2S,3R)-3-hydroxy-1-oxo-1-(dodecylamino)butan-2-yl)-benzofuran-2-carboxamide]	21.3 ± 1.28 µM	21.4 µM	22.9 ± 1.18 µM	20 ± 0.9 µM	12.8 ± 2.07 µM	< 30 µM	direct anti-cancer cell activity	apoptotic cell death	10.5 ± 1.31 µM	20.9 ± 0.54 µM	–
